Test: recombinant UMI read abundance after kanamycin selection (control-corrected) (log10(CPM+1)); higher = more efficient recombination; extreme values may be limits of the assay; sequences stand for … in AGTGCAGAGAAAATCGGCCAGTTTTCTCTGCCTGCAGTCCGCATGCCGTGGGACCCCTTGGGTTCTAACCTGTTGCCTAGATTTATGCAGCGGACTGCCTTTCTCCCAAAGTGATAAACCGG…AGGTTGGTTTCACT; site = the 11-nt donor
In short: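 Counts of recombinant UMIs were reported as log10(CPM+1). Before that, they were converted to CPM, averaged over replicates and scaled using control-derived factors. They came from PCR across the donor–target junction after Escherichia coli carrying the pair library and target plasmid was plated on IPTG (0.07 mM) plus kanamycin, or unselected, in two replicates each.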
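Note: IS621 bridge recombinase in Escherichia coli cells against a fixed T5 target plasmid.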

Row | Sequence | recombinant UMI read abundance (log10)
1 | CGATCCACATGGACCGGTTTTCCCGGTAATCCGTATTTGTT (site CGATCAACTAA) | 0.00541
2 | CGATCCACATGGACCGGTTTTCCCGGTAATCCGTATTTGTT (site CGATCCACTAA) | 2.11
3 | CGATCCACATGGACCGGTTTTCCCGGTAATCCGTATTTGTT (site CGATCGACTAA) | 0.00891
4 | CGATCCACATGGACCGGTTTTCCCGGTAATCCGTATTTGTT (site CGATCTACTAA) | 0.00733
5 | CGATCGTCATGGACCGGTTTTCCCGGTAATCCGTATTTGCC (site CGATCATCTAG) | 0
6 | CGATCGTCATGGACCGGTTTTCCCGGTAATCCGTATTTGCC (site CGATCGTCTGG) | 1.05
7 | CGATCTTCATGGACCGGTTTTCCCGGTAATCCGTATTTGCT (site CGATCATCTAG) | 0
8 | CGATCTTCATGGACCGGTTTTCCCGGTAATCCGTATTTGCT (site CGATCCTCTAG) | 0.00985
9 | CGATCTTCATGGACCGGTTTTCCCGGTAATCCGTATTTGCT (site CGATCGTCTAG) | 0.00569
10 | CGATCTTCATGGACCGGTTTTCCCGGTAATCCGTATTTGCT (site CGATCTTCTAG) | 0.601
11 | CGATGTGCATGGACCGGTTTTCCCGGTAATCCGTATTTGGC (site CGATGTGCTGC) | 3.02
12 | CGATGTTCATGGACCGGTTTTCCCGGTAATCCGTATTTGTC (site CGATGTTCTGA) | 2.98
13 | CGATTATCATGGACCGGTTTTCCCGGTAATCCGTATTTGCT (site CGATAATCTAG) | 0.446
14 | CGATTATCATGGACCGGTTTTCCCGGTAATCCGTATTTGCT (site CGATCATCTAG) | 0
15 | CGATTATCATGGACCGGTTTTCCCGGTAATCCGTATTTGCT (site CGATGATCTAG) | 0
16 | CGATTATCATGGACCGGTTTTCCCGGTAATCCGTATTTGCT (site CGATTATCTAG) | 2.28
17 | CGATTCCCATGGACCGGTTTTCCCGGTAATCCGTATTTGCT (site CAATTCCCTAG) | 0.32
18 | CGATTCCCATGGACCGGTTTTCCCGGTAATCCGTATTTGCT (site CCATTCCCTAG) | 1.03
19 | CGATTCCCATGGACCGGTTTTCCCGGTAATCCGTATTTGCT (site CGATTCCCTAG) | 0.704
20 | CGATTCCCATGGACCGGTTTTCCCGGTAATCCGTATTTGCT (site CTATTCCCTAG) | 0
21 | CGATTGGCATGGACCGGTTTTCCCGGTAATCCGTATTTGAT (site CGATTGGCTAT) | 2.26
22 | CGCAACACATGGACCGGTTTTCCCGGTAATCCGTATTTGCG (site CGCAACACTCG) | 1.19
23 | CGCAACCCATGGACCGGTTTTCCCGGTAATCCGTATTTGTT (site CGCAACCCTAA) | 0.717
24 | CGCAACCCATGGACCGGTTTTCCCGGTAATCCGTATTTGTT (site CGGAATCCTAA) | 0
25 | CGCAATCCATGGACCGGTTTTCCCGGTAATCCGTATTTGGT (site CGCAATCCTAC) | 0.135

Row | Sequence | recombinant UMI read abundance (log10)
26 | CGCAATCCATGGACCGGTTTTCCCGGTAATCCGTATTTGGT (site CGGAATCCTAA) | 0
27 | CGCACCGCATGGACCGGTTTTCCCGGTAATCCGTATTTGCA (site CGCACCGCTTG) | 2.35
28 | CGCATTACATGGACCGGTTTTCCCGGTAATCCGTATTTGCA (site CGCATTACTTG) | 1.64
29 | CGCATTTCATGGACCGGTTTTCCCGGTAATCCGTATTTGAG (site CGCATTTCTCT) | 0.426
30 | CGCCACTCATGGACCGGTTTTCCCGGTAATCCGTATTTGCG (site CGCCACTCTCG) | 2.05
31 | CGCCCGACATGGACCGGTTTTCCCGGTAATCCGTATTTGCC (site CGCCCGACTGG) | 2.5
32 | CGCCCTACATGGACCGGTTTTCCCGGTAATCCGTATTTGAG (site CACCCTACTCT) | 0.475
33 | CGCCCTACATGGACCGGTTTTCCCGGTAATCCGTATTTGAG (site CCCCCTACTCT) | 0.0131
34 | CGCCCTACATGGACCGGTTTTCCCGGTAATCCGTATTTGAG (site CGCCCTACTCT) | 1.44
35 | CGCCCTACATGGACCGGTTTTCCCGGTAATCCGTATTTGAG (site CTCCCTACTCT) | 0.0151
36 | CGCCGCACATGGACCGGTTTTCCCGGTAATCCGTATTTGCT (site CGCCGAACTAG) | 0
37 | CGCCGCACATGGACCGGTTTTCCCGGTAATCCGTATTTGCT (site CGCCGCACTAG) | 2.18
38 | CGCCGCACATGGACCGGTTTTCCCGGTAATCCGTATTTGCT (site CGCCGGACTAG) | 0.00439
39 | CGCCGCACATGGACCGGTTTTCCCGGTAATCCGTATTTGCT (site CGCCGTACTAG) | 0
40 | CGCCGGACATGGACCGGTTTTCCCGGTAATCCGTATTTGCT (site CGCCGAACTAG) | 2.52
41 | CGCCGGACATGGACCGGTTTTCCCGGTAATCCGTATTTGCT (site CGCCGCACTAG) | 0.00459
42 | CGCCGGACATGGACCGGTTTTCCCGGTAATCCGTATTTGCT (site CGCCGGACTAG) | 1.82
43 | CGCCGGACATGGACCGGTTTTCCCGGTAATCCGTATTTGCT (site CGCCGTACTAG) | 0
44 | CGCCGTACATGGACCGGTTTTCCCGGTAATCCGTATTTGCT (site AGCCGTACTAG) | 0.192
45 | CGCCGTACATGGACCGGTTTTCCCGGTAATCCGTATTTGCT (site CACCGTACTAG) | 0.33
46 | CGCCGTACATGGACCGGTTTTCCCGGTAATCCGTATTTGCT (site CCCCGTACTAG) | 0.907
47 | CGCCGTACATGGACCGGTTTTCCCGGTAATCCGTATTTGCT (site CGACGTACTAG) | 0.00883
48 | CGCCGTACATGGACCGGTTTTCCCGGTAATCCGTATTTGCT (site CGCAGTACTAG) | 0.331
49 | CGCCGTACATGGACCGGTTTTCCCGGTAATCCGTATTTGCT (site CGCCATACTAG) | 0.922
50 | CGCCGTACATGGACCGGTTTTCCCGGTAATCCGTATTTGCT (site CGCCCTACTAG) | 0.301

Row | Sequence | recombinant UMI read abundance (log10)
51 | CGCCGTACATGGACCGGTTTTCCCGGTAATCCGTATTTGCT (site CGCCGAACTAG) | 0
52 | CGCCGTACATGGACCGGTTTTCCCGGTAATCCGTATTTGCT (site CGCCGCACTAG) | 0.796
53 | CGCCGTACATGGACCGGTTTTCCCGGTAATCCGTATTTGCT (site CGCCGGACTAG) | 0
54 | CGCCGTACATGGACCGGTTTTCCCGGTAATCCGTATTTGCT (site CGCCGTACTAA) | 0.0116
55 | CGCCGTACATGGACCGGTTTTCCCGGTAATCCGTATTTGCT (site CGCCGTACTAC) | 0.00604
56 | CGCCGTACATGGACCGGTTTTCCCGGTAATCCGTATTTGCT (site CGCCGTACTAG) | 1.59
57 | CGCCGTACATGGACCGGTTTTCCCGGTAATCCGTATTTGCT (site CGCCGTACTAT) | 0.0196
58 | CGCCGTACATGGACCGGTTTTCCCGGTAATCCGTATTTGCT (site CGCCGTACTCG) | 0.111
59 | CGCCGTACATGGACCGGTTTTCCCGGTAATCCGTATTTGCT (site CGCCGTACTGG) | 0
60 | CGCCGTACATGGACCGGTTTTCCCGGTAATCCGTATTTGCT (site CGCCGTACTTG) | 0.00335
61 | CGCCGTACATGGACCGGTTTTCCCGGTAATCCGTATTTGCT (site CGCCGTCCTAG) | 0
62 | CGCCGTACATGGACCGGTTTTCCCGGTAATCCGTATTTGCT (site CGCCGTGCTAG) | 0.065
63 | CGCCGTACATGGACCGGTTTTCCCGGTAATCCGTATTTGCT (site CGCCGTTCTAG) | 0
64 | CGCCGTACATGGACCGGTTTTCCCGGTAATCCGTATTTGCT (site CGCCTTACTAG) | 0
65 | CGCCGTACATGGACCGGTTTTCCCGGTAATCCGTATTTGCT (site CGCGGTACTAG) | 0
66 | CGCCGTACATGGACCGGTTTTCCCGGTAATCCGTATTTGCT (site CGCTGTACTAG) | 0
67 | CGCCGTACATGGACCGGTTTTCCCGGTAATCCGTATTTGCT (site CGGCGTACTAG) | 0.0034
68 | CGCCGTACATGGACCGGTTTTCCCGGTAATCCGTATTTGCT (site CGTCGTACTAG) | 0
69 | CGCCGTACATGGACCGGTTTTCCCGGTAATCCGTATTTGCT (site CTCCGTACTAG) | 0
70 | CGCCGTACATGGACCGGTTTTCCCGGTAATCCGTATTTGCT (site GGCCGTACTAG) | 0.00569
71 | CGCCGTACATGGACCGGTTTTCCCGGTAATCCGTATTTGCT (site TGCCGTACTAG) | 0.0708
72 | CGCCGTACATGGACCGGTTTTCCCGGTAATCCGTATTTGTT (site CGCCGTACTAA) | 1.23
73 | CGCCGTACATGGACCGGTTTTCCCGGTAATCCGTATTTGTT (site CGCCGTACTAC) | 0.00659
74 | CGCCGTACATGGACCGGTTTTCCCGGTAATCCGTATTTGTT (site CGCCGTACTAG) | 0.486
75 | CGCCGTACATGGACCGGTTTTCCCGGTAATCCGTATTTGTT (site CGCCGTACTAT) | 0.0268

— the supplement of paper PMC11208160
